Test results reported in patent publication US9255100B2 (BAYER INTELLECTUAL PROPERTY GMBH, priority 2010, dated 2016).

biological target: T1, N-terminally GST-tagged human full length recombinant Mps-1 kinase (Homo sapiens, UniProt P33981); experiment: Mps-1 kinase assay (TR-FRET); assay type: biochemical; conditions: Mps1 IC50 [nM], 10 μM ATP, 1 μM peptide substrate, 60 min at 22° C.
T1 construct: N-terminally GST-tagged human full length recombinant Mps-1 kinase; purchased Invitrogen, Karslruhe, Germany PV4071
T1 sequence (P33981 1-857): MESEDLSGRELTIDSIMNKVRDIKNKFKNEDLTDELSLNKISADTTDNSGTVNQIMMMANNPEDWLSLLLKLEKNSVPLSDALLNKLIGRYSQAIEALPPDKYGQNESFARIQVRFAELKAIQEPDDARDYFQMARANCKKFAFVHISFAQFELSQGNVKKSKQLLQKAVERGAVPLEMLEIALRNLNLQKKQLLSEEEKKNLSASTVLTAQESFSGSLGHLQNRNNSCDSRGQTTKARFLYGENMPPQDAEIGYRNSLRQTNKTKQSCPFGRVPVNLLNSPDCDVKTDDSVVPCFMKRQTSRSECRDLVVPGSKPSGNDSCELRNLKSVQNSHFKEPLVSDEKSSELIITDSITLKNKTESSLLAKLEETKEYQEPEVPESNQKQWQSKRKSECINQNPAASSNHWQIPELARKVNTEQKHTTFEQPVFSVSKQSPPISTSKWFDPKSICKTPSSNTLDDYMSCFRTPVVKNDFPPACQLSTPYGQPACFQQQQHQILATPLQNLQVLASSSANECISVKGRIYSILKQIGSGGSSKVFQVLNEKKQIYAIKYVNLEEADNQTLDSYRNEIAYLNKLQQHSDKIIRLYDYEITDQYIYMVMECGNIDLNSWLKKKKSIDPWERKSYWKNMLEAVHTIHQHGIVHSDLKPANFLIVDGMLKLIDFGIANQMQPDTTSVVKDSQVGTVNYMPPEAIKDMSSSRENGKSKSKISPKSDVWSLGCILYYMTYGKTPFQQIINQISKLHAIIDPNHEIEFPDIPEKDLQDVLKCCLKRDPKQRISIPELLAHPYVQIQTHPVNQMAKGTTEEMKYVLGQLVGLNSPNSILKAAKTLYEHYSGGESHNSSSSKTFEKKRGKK
Procedure, shortened: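 Next, Eu-labelled anti-phospho(Ser/Thr) antibody and SA-XLent bind for 1 h at 22° C. Finally, energy transfer quantifies phosphorylated product.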

**Q.** `CC(C)(O)CNc1cc(C2=CCCCC2)nn2c(-c3ccc(C(=S)NC4CC4)cc3)cnc12` [Example 43, 4-{6-(Cyclohex-1-en-1-yl)-8-[(2-hydroxy-2-methylpropyl)amino]imidazo[1,2-b]pyridazin-3-yl}-N-cyclopropylbenzenecarbothioamide] was tested. Which IC50 did it give?
**A.** The IC50 was 21.1 nM.

**Q.** With `COc1cccc(Nc2cc(NCC(C)(C)O)c3ncc(-c4ccc(C(=O)NC5CC5)c(C)c4)n3n2)c1` [Example 403, N-cyclopropyl-4-{8-[(2-hydroxy-2-methylpropyl)amino]-6-[(3-methoxyphenyl)amino]imidazo[1,2-b]pyridazin-3-yl}-2-methylbenzamide] as the compound, how does the IC50 read?
**A.** The IC50 was 1 nM.

**Q.** Which IC50 does the source give for `Cc1cc(-c2cnc3c(NCC4CCSCC4)cc(Oc4ccc(F)cc4)nn23)ccc1C(=O)NC1CC1` [Example 290, N-cyclopropyl-4-{6-(4-fluorophenoxy)-8-[(tetrahydro-2H-thiopyran-4-ylmethyl)amino]imidazo[1,2-b]pyridazin-3-yl}-2-methylbenzamide] here?
**A.** Its IC50 is 0.3 nM.

**Q.** With `CC(C)CNc1cc(-c2ccnc3ccccc23)nn2c(-c3ccc(C(=O)NC4CC4)cc3)cnc12` [Example 112, N-cyclopropyl-4-{8-[(2-methylpropyl)amino]-6-(quinolin-4-yl)imidazol [1,2-b]pyridazin-3-yl} benzamide] as the compound, how does the IC50 read?
**A.** The IC50 was 5.1 nM.

**Q.** How did the IC50 turn out when `Cc1cc(-c2cnc3c(NCCC(F)(F)F)cc(Sc4cc(F)cc(F)c4)nn23)ccc1C(=O)NC1CC1` [Example 251, N-cyclopropyl-4-{6-[(3,5-difluorophenyl)sulfanyl]-8-[(3,3,3-trifluoropropyl)amino]imidazo[1,2-b]pyridazin-3-yl}-2-methylbenzamide] was run?
**A.** Its IC50 is 0.2 nM.

**Q.** `CCNC(=O)c1ccc(-c2cnc3c(NCCOC)cc(Oc4ccc(F)c(F)c4)nn23)cc1C` [Example 607, 4-{6-(3,4-difluorophenoxy)-8-[(2-methoxyethyl)a-mino]imidazo[1,2-b]pyridazin-3-yl}-N-ethyl-2-methylbenzamide] was tested. Which IC50 did it give?
**A.** Its IC50 is 3.7 nM.

**Q.** `Cc1cc(-c2cnc3c(NCC(C)(C)O)cc(Nc4cccc(O)c4)nn23)ccc1C(=O)NC1CC1` [Example 446, N-cyclopropyl-4-{8-[(2-hydroxy-2-methylpropyl)amino]-6-[(3-hydroxyphenyl)amino]imidazo[1,2-b]pyridazin-3-yl}-2-methylbenzamide] was tested. Which IC50 did it give?
**A.** Its IC50 is 0.4 nM.

**Q.** Which IC50 does the source give for `Cc1cc(-c2cnc3c(NCCC(F)(F)F)cc(Nc4ccc(CCO)cc4)nn23)ccc1C(=O)NC1CC1` [Example 427, N-cyclopropyl-4-(6-{[4-(2-hydroxyethyl)phenyl]amino}-8-[(3,3,3-trifluoropropyl)amino]imidazo[1,2-b]pyridazin-3-yl)-2-methylbenzamide] here?
**A.** Its IC50 is 0.2 nM.

**Q.** With `CC(C)(O)CNc1cc(Sc2ccccc2)nn2c(-c3ccc(C(=S)NC4CC4)cc3)cnc12` [Example 245, N-cyclopropyl-4-{8-[(2-hydroxy-2-methylpropyl)amino]-6-(phenylsulfanyl)imidazo[1,2-b]pyridazin-3-yl}benzenecarbothioamide] as the compound, how does the IC50 read?
**A.** The IC50 was 0.7 nM.

**Q.** Which IC50 does the source give for `Cc1cc(-c2cnc3c(NCCC(F)(F)F)cc(Sc4ccc(Cl)cc4CO)nn23)ccc1C(=O)NC1CC1` [Example 392, 4-(6-{[4-chloro-2-(hydroxymethyl)phenyl]sulfanyl}-8-[(3,3,3-trifluoropropyl)amino]imidazo[1,2-b]pyridazin-3-yl)-N-cyclopropyl-2-methylbenzamide] here?
**A.** Its IC50 is 0.4 nM.

**Q.** With `Cc1cc(-c2cnc3c(NCC(C)(C)O)cc(SC4CCCC4)nn23)ccc1C(=O)NC1CC1` [Example 336, 4-{6-(cyclopentylsulfanyl)-8-[(2-hydroxy-2-methylpropyl)amino]imidazo[1,2-b]pyridazin-3-yl}-N-cyclopropyl-2-methyl-benzamide] as the compound, how does the IC50 read?
**A.** Its IC50 is 1 nM.

**Q.** With `CC(C)(O)CNc1cc(-c2ccc(F)cc2)nn2c(-c3ccc(C(=O)NC4CC4)cc3)cnc12` [Example 19, N-cyclopropyl-4-{6-(4-fluorophenyl)-8-[(2-hydroxy-2-methylpropyl)amino]imidazo[1,2-b]pyridazin-3-yl}benzamide] as the compound, how does the IC50 read?
**A.** Its IC50 is 1.6 nM.

**Q.** For `Cc1cc(-c2cnc3c(NCCC(F)(F)F)cc(Nc4cc(F)cc(F)c4)nn23)ccc1C(=O)NC1CC1` [Example 378, N-cyclopropyl-4-{6-[(3,5-difluorophenyl)amino]-8-[(3,3,3-trifluoropropyl)amino]imidazo[1,2-b]pyridazin-3-yl}-2-methylbenzamide], which IC50 is on record?
**A.** Its IC50 is 0.2 nM.

**Q.** `Cc1cc(-c2cnc3c(NCC(C)(C)O)cc(Oc4cc(F)cc(F)c4)nn23)ccc1C(=O)NC1CC1` [Example 262, N-cyclopropyl-4-{6-(3,5-difluorophenoxy)-8-[(2-hydroxy-2-methylpropyl)amino]imidazo[1,2-b]pyridazin-3-yl}-2-methylbenzamide] was tested. Which IC50 did it give?
**A.** The IC50 was 0.2 nM.

**Q.** With `Cc1cc(-c2cnc3c(NCCN(C)C)cc(Oc4ccc(F)c(F)c4)nn23)ccc1C(=O)NC1CC1` [Example 525, N-cyclopropyl-4-[6-(3,4-difluorophenoxy)-8-{[2-(dimethylamino)ethyl]amino}imidazo[1,2-b]pyridazin-3-yl]-2-methylbenzamide] as the compound, how does the IC50 read?
**A.** The IC50 was 0.7 nM.

**Q.** How did the IC50 turn out when `Cc1cc(-c2cnc3c(NCCC(F)(F)F)cc(-c4ccccc4CO)nn23)ccc1C(=O)NC1CC1` [Example 20, N-cyclopropyl-4-{6-[2-(hydroxymethyl)phenyl]-8-[(3,3,3-trifluoropropyl)amino]imidazo[1,2-b]pyridazin-3-yl}-2-methylbenzamide] was run?
**A.** Its IC50 is 1.2 nM.

**Q.** Which IC50 does the source give for `Cc1cc(-c2cnc3c(NCC(C)(C)O)cc(Nc4cccc(Cl)c4)nn23)ccc1C(=O)NC1CC1` [Example 355, 4-{6-[(3-chlorophenyl)amino]-8-[(2-hydroxy-2-methylpropyl)amino]imidazo[1,2-b]pyridazin-3-yl}-N-cyclopropyl-2-methylbenzamide] here?
**A.** Its IC50 is 0.9 nM.

**Q.** Which IC50 does the source give for `Cc1cc(-c2cnc3c(NCC(C)(C)O)cc(Sc4cccs4)nn23)ccc1C(=O)NC1CC1` [Example 261, N-cyclopropyl-4-{8-[(2-hydroxy-2-methylpropyl)amino]-6-(2-thienylsulfanyl)imidazo[1,2-b]pyridazin-3-yl}-2-methylbenzamide] here?
**A.** Its IC50 is 0.5 nM.

**Q.** For `CC(C)CNc1cc(-c2ccncc2)nn2c(-c3ccc(-c4cnc(C5CC5)[nH]4)cc3)cnc12` [Example 3, 3-[4-(2-Cyclopropyl-1H-imidazol-5-yl)phenyl]-N-isobutyl-6-(pyridin-4-yl) imidazo[1,2-b]pyridazin-8-amine], which IC50 is on record?
**A.** The IC50 was 13.7 nM.

**Q.** For `Cc1cc(-c2cnc3c(NCC(C)(C)N)cc(-c4ccccc4CO)nn23)ccc1C(=O)NC1CC1` [Example 59, 4-{8-[(2-Amino-2-methylpropyl)amino]-6-[2-(hydroxymethyl)phenyl]imidazo[1,2-b]pyridazin-3-yl}-N-cyclopropyl-2-methylbenzamide], which IC50 is on record?
**A.** The IC50 was 32.5 nM.

**Q.** With `Cc1cc(-c2cnc3c(NCCC(F)(F)F)cc(Oc4ccccc4O)nn23)ccc1C(=O)NC1CC1` [Example 280, N-cyclopropyl-4-{6-(2-hydroxyphenoxy)-8-[(3,3,3-trifluoropropyl)amino]imidazo[1,2-b]pyridazin-3-yl}-2-methylbenzamide] as the compound, how does the IC50 read?
**A.** Its IC50 is 0.1 nM.

**Q.** For `Cc1cc(-c2cnc3c(NCCC(F)(F)F)cc(Sc4ccccc4)nn23)ccc1C(=O)NC1CC1` [Example 207, N-cyclopropyl-2-methyl-4-{6-(phenylsulfanyl)-8-[(3,3,3-trifluoropropyl)amino]imidazo[1,2-b]pyridazin-3-yl}benzamide], which IC50 is on record?
**A.** Its IC50 is less than 1 nM.

**Q.** `COc1ccc(C)c(Nc2cc(NCC(C)(C)O)c3ncc(-c4ccc(C(=O)NC5CC5)c(C)c4)n3n2)c1` [Example 349, N-cyclopropyl-4-{8-[(2-hydroxy-2-methylpropyl)amino]-6-[(5-methoxy-2-methylphenyl)amino]imidazo[1,2-b]pyridazin-3-yl}-2-methylbenzamide] was tested. Which IC50 did it give?
**A.** The IC50 was 0.4 nM.

**Q.** For `Cc1cc(-c2cnc3c(NCCS(=O)(=O)O)cc(Oc4cccc(F)c4)nn23)ccc1C(=O)NC1CC1` [Example 548, 2-({3-[4-(cyclopropylcarbamoyl)-3-methylphenyl]-6-(3-fluorophenoxy)imidazo[1,2-b]pyridazin-8-yl}amino)ethanesulfonic acid], which IC50 is on record?
**A.** The IC50 was 0.7 nM.

**Q.** `CNC(=O)c1ccc(-c2cnc3c(NCCC(F)(F)F)cc(Oc4ccc(OC)cc4F)nn23)cc1C` [Example 576, 4-{6-(2-fluoro-4-methoxyphenoxy)-8-[(3,3,3-trifluoropropyl)a-mino]imidazo[1,2-b]pyridazin-3-yl}-N,2-dimethylbenzamide] was tested. Which IC50 did it give?
**A.** The IC50 was less than 1 nM.

**Q.** With `COC(C)(C)CNc1cc(-c2ccncc2)nn2c(-c3ccc(C(=O)NC4CC4)c(C)c3)cnc12` [Example 17, N-cyclopropyl-4-{8-[(2-methoxy-2-methylpropyl)amino]-6-(pyridin-4-yl)imidazo[1,2-b]pyridazin-3-yl}-2-methylbenzamide] as the compound, how does the IC50 read?
**A.** The IC50 was 3.2 nM.
